Structures are written as SMILES. Bounds are passed on as bounds.

The target of one test is L-lactate dehydrogenase (Plasmodium falciparum (isolate CDC / Honduras), UniProt Q27743). Description: Lactate Dehydrogenase Inhibition Assay. To be noted: pH 7; 25 °C.
L-lactate dehydrogenase, sequence (Q27743 whole entry): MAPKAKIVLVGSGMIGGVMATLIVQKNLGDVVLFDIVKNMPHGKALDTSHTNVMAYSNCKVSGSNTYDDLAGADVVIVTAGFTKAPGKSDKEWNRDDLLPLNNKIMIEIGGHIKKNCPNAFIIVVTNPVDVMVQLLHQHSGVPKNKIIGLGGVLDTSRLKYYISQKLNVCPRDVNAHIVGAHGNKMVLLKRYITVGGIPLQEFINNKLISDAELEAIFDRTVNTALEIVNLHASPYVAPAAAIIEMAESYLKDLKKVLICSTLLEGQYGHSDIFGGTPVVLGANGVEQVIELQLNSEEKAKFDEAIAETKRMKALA
`O=C(O)C(=O)Nc1ccc(CCOc2cc(O)c3c(=O)cc(C(=O)O)oc3c2)cc1` [7-{2-[4-(formamidoformic acid)phenyl]ethoxy}-5-hydroxy-4-oxo-4H-chromene-2-carboxylic acid] had an IC50 greater than 241 µM.

A further test deals with L-lactate dehydrogenase B chain (Bos taurus, UniProt Q5E9B1). Description: Lactate Dehydrogenase Inhibition Assay. To be noted: pH 7; 25 °C.
L-lactate dehydrogenase B chain, sequence (Q5E9B1 whole entry): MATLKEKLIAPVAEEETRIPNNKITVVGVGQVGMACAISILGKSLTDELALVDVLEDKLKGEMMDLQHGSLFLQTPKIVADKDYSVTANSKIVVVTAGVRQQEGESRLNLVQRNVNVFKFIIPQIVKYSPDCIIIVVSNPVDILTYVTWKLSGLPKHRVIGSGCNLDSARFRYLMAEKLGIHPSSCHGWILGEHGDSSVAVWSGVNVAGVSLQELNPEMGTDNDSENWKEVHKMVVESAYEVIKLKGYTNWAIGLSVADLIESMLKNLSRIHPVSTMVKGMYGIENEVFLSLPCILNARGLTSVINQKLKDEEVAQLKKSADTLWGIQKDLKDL
In the case of `COc1cc(CCOc2cc(O)c3c(=O)cc(C(=O)O)oc3c2)ccc1NC(=O)C(=O)O` [7-{2-[4-(formamidoformic acid)-3-methoxyphenyl]ethoxy}-5-hydroxy-4-oxo-4H-chromene-2-carboxylic acid], the IC50 is greater than 225 µM.

`O=C(O)C(=O)Nc1ccc(CCOc2cc(O)c3c(=O)cc(C(=O)O)oc3c2)cc1` [7-{2-[4-(formamidoformic acid)phenyl]ethoxy}-5-hydroxy-4-oxo-4H-chromene-2-carboxylic acid] registered a half-maximal inhibitory concentration (IC50) greater than 241 µM.

For the molecule `COc1cc(COc2cc(O)c3c(=O)cc(C(=O)O)oc3c2)ccc1NC(=O)C(=O)O` [7-{[4-(formamidoformic acid)-3-methoxyphenyl]methoxy}-5-hydroxy-4-oxo-4H-chromene-2-carboxylic acid], the IC50 is greater than 232 µM.

`COc1ccc(CNC(=O)c2cc(=O)c3c(O)cc(OCCc4ccc(NC(=O)C(=O)O)c(C#N)c4)cc3o2)cc1` [[(2-cyano-4-{2-[(5-hydroxy-2-{[(4-methoxyphenyl)methyl]carbamoyl}-4-oxo-4H-chromen-7-yl)oxy]ethyl}phenyl)carbamoyl]formic acid] displayed an IC50 greater than 179 µM.

Turning to `COc1ccc(CNC(=O)c2cc(=O)c3c(O)cc(OCCc4ccc(NC(=O)C(=O)O)cc4)cc3o2)cc1` [[(4-{2-[(5-hydroxy-2-{[(4-methoxyphenyl)methyl]carbamoyl}-4-oxo-4H-chromen-7-yl)oxy]ethyl}phenyl)carbamoyl]formic acid], the IC50 was greater than 187 µM.

The IC50 is the concentration at which inhibition is half-maximal.

Values taken from BindingDB's records for doi:10.1021/jm070336k (University of Mississippi, 2007).
